Experiment: solvent given as SMILES

Work on O=C1NC(=O)/C(=C\c2ccccc2O)S1 yielded an emission maximum (in C1CCCCC1) of 397 nm, an emission maximum (in C1COCCO1) of 418 nm and an emission maximum (in CC#N) of 428 nm. For the same compound, the emission maximum (in CN(C)C=O) was 424 nm, the emission maximum (in CO) was 428 nm and the emission maximum (in O) was 480 nm. It also gave an emission maximum (in OCC(O)CO) of 451 nm and an emission maximum (in OCCO) of 440 nm.

For c1ccc2c(c1)-c1ccccc1C21c2ccccc2-c2ncccc21, the emission maximum (in CC1CCCO1) was 333 nm.

O=C1NC(=O)c2ccc(N3CCCCC3)c3cccc1c23 gave an emission maximum (in ClC(Cl)Cl) of 517 nm.

For CCn1c2sccc2c2c3nsnc3c3c4ccsc4n(CC)c3c21, the emission maximum (in C1CCOC1) was 521 nm, the emission maximum (in CCOC(C)=O) was 521 nm and the emission maximum (in CN(C)C=O) was 552 nm. It also gave an emission maximum (in Cc1ccccc1) of 508 nm and an emission maximum (in ClCCl) of 548 nm.

With CN(C)c1ccc(/C=C/c2cc(/C=C/c3ccc(N(C)C)cc3)nc(/C=C/c3ccccc3)n2)cc1 the emission maximum (in C1CCOC1) was 526 nm, the emission maximum (in CC#N) was 587 nm and the emission maximum (in CC(C)=O) was 563 nm. The emission maximum (in CCCCCCC) was 453 nm, the emission maximum (in CS(C)=O) was 601 nm and the emission maximum (in Cc1ccccc1) was 483 nm. The emission maximum (in ClCCl) was 537 nm.

CC1(C)c2ccccc2N(c2ccc(-c3ccc(C#N)c(C#N)n3)cc2)c2ccccc21 gave an emission maximum (in Cc1ccccc1) of 562 nm and an emission maximum (in N#Cc1ccc2c(c1)c1ccccc1n2-c1cccc(-n2c3ccccc3c3ccccc32)c1) of 550 nm.

CC[N+]1=C(/C=C/C=C/C=C/C=C2/N(CCCCCC(=O)O)c3ccccc3C2(C)C)C(C)(C)c2cc(S(=O)(=O)[O-])ccc21 gave an emission maximum (in CO) of 775 nm and an emission maximum (in O) of 769 nm.

C/C(=C\c1ccc(C)cc1)c1nc2ccccc2s1 showed an emission maximum (in C1CCCCC1) of 390 nm and an emission maximum (in CO) of 400 nm.

Work on CCOC(=O)CCCCCn1c2ccccc2c(=O)c2cc3c(cc21)c(=O)c1cc(I)ccc1n3CCCCCC(=O)OCC yielded an emission maximum (in CO) of 558 nm.

CCN(CC)c1ccc2cc(/C=C/C(O)=C3\CC/C(=C\c4cc5ccc(N(CC)CC)cc5oc4=O)C3=O)c(=O)oc2c1 gave an emission maximum (in C1COCCO1) of 581 nm, an emission maximum (in CC#N) of 637 nm and an emission maximum (in CC(C)=O) of 613 nm. The emission maximum (in CCOC(C)=O) was 589 nm, the emission maximum (in CN(C)C=O) was 638 nm and the emission maximum (in CS(C)=O) was 639 nm. It also gave an emission maximum (in Cc1ccccc1) of 570 nm and an emission maximum (in ClC(Cl)Cl) of 605 nm.

For C#Cn1c(-c2cc(-c3nc4ccc(C)cc4n3C#C)cc(-c3nc4ccc(C)cc4n3C#C)c2)nc2ccc(C)cc21, the emission maximum (in C1CCOC1) was 389.5 nm.

In the case of c1ccc(-c2nc(-c3ccc(N4c5ccccc5Sc5ccccc54)cc3)nn2-c2ccc(N3c4ccccc4Sc4ccccc43)cc2)nc1, the emission maximum (in ClCCl) is reported as 490 nm.

Compound CCCCn1c2ccccc2c2ccc3c4cc(-c5ccc(C(F)(F)F)cc5)ccc4n(CCCC)c3c21 has an emission maximum (in ClC(Cl)Cl) of 402 nm.

Compound CC1(C)c2ccccc2-c2cc3c(cc21)c1ccccc1n3-c1ccc2ncccc2c1 has an emission maximum (in ClCCl) of 446 nm.

For COC(=O)c1cc(=O)n(C)c2cc(-c3cc(OC)c(OC)c(OC)c3)sc12, the emission maximum (in CC#N) was 495 nm and the emission maximum (in ClCCl) was 485 nm.

With CC(C)[Si](C#Cc1cc2c3c(c1)c(=C1c4ccccc4Sc4ccccc41)c1cc(C#C[Si](C(C)C)(C(C)C)C(C)C)cc4c1N3c1c(cc(C#C[Si](C(C)C)(C(C)C)C(C)C)cc1c4=C1c3ccccc3Sc3ccccc31)c2=C1c2ccccc2Sc2ccccc21)(C(C)C)C(C)C the emission maximum (in ClCCl) was 511 nm.

Cc1c(COC(=O)c2ccccc2Cl)n2c(OCC(=O)c3ccccc3Cl)c(C)c(=O)n2c1=O gave an emission maximum (in CCO) of 459 nm.

Work on COc1ccc(/C=C/C2=CC(/C=C/c3ccc(OC)cc3)=[N+]3C2=C(c2ccc(-c4ccc5ccccc5n4)s2)c2c(/C=C/c4ccc(OC)cc4)cc(/C=C/c4ccc(OC)cc4)n2[B-]3(F)F)cc1 yielded an emission maximum (in C1COCCO1) of 732 nm.

Compound FC(F)(F)c1ccc(-c2ccc(-c3cc(-c4ccccn4)nc(-c4ccccn4)c3)cc2)cc1 has an emission maximum (in ClCCl) of 359 nm.

Compound O=C1/C(=C\c2ccc3oc4ccccc4c3c2)S(=O)(=O)c2ccccc21 has an emission maximum (in C1CCOC1) of 437 nm, an emission maximum (in C1COCCO1) of 436 nm and an emission maximum (in CC#N) of 480 nm. For the same compound, the emission maximum (in CC(C)=O) was 458 nm, the emission maximum (in CCOC(C)=O) was 429 nm and the emission maximum (in CN(C)C=O) was 445 nm. It also gave an emission maximum (in CO) of 439 nm, an emission maximum (in CS(C)=O) of 449 nm and an emission maximum (in Cc1ccccc1) of 430 nm. The emission maximum (in ClC(Cl)Cl) was 441 nm and the emission maximum (in ClCCl) was 438 nm.

In the case of C[Si]1(C)c2ccc(-c3ccc(-c4cccs4)s3)cc2C=Cc2cc(-c3ccc(-c4cccs4)s3)ccc21, the emission maximum (in ClCCl) is reported as 424 nm.

Compound Cc1cc(O)c(C(=O)/C=C/c2ccccc2O)c(=O)o1 has an emission maximum (in CC#N) of 510 nm and an emission maximum (in ClCCl) of 477 nm.

With CC[C@H](C)COc1ccc(C2=C3C(C)=CC(C)=[N+]3[B-](F)(F)n3c(C)cc(C)c32)cc1 the emission maximum (in ClCCl) was 520 nm.

Cc1cc(-n2c3ccccc3c3ccccc32)c(-n2c3ccccc3c3ccccc32)cc1C#N showed an emission maximum (in c1cc(-c2cccc(-n3c4ccccc4c4ccccc43)c2)cc(-n2c3ccccc3c3ccccc32)c1) of 485 nm, an emission maximum (in c1ccc2c(c1)c1ccccc1n2-c1ccc2sc3ccc(-n4c5ccccc5c5ccccc54)cc3c2c1) of 489 nm and an emission maximum (in c1ccc2c(c1)c1ccccc1n2-c1ccc2sc3ccc(-n4c5ccccc5c5cccnc54)cc3c2c1) of 495 nm. It also gave an emission maximum (in c1ccc2c(c1)c1cccnc1n2-c1ccc2sc3ccc(-n4c5ccccc5c5cccnc54)cc3c2c1) of 498 nm.

With C(=C\c1c[nH]c2ccc(Oc3ccccc3)cc12)/C1=[NH+]c2cccc3cccc1c23 the emission maximum (in CO) was 584 nm.

For c1ccc2c(c1)-c1ccccc1C21c2ccccc2N(c2ccc(-c3nc([C@]45CC6CC(C[C@@H](C6)C4)C5)nc([C@]45C[C@H]6C[C@@H](C[C@H](C6)C4)C5)n3)cc2)c2ccccc21, the emission maximum (in CC(C)(C)c1ccc(-n2c3ccc([Si](c4ccccc4)(c4ccccc4)c4ccccc4)cc3c3cc([Si](c4ccccc4)(c4ccccc4)c4ccccc4)ccc32)cc1) was 448.69 nm and the emission maximum (in Cc1ccccc1) was 454.71 nm.

Compound CN(C)c1ccc(/C=C/C=C/c2ccc(C#N)cc2)cc1 has an emission maximum (in CC#N) of 589 nm, an emission maximum (in CCCC#N) of 579 nm and an emission maximum (in CCCCCC) of 440 nm. It also gave an emission maximum (in CCOCC) of 509 nm.

C[C@@]12SC(Cl)=CC1=c1nc(-c3ccccc3)[nH]c1=C1C=C(Cl)S[C@]12C gave an emission maximum (in CC#N) of 452 nm.

With Cc1ccc(-n2c3ccc(-c4ccc(-c5nc6ccccc6n5-c5ccccc5)cc4)cc3c3cc(-c4ccc(-c5nc6ccccc6n5-c5ccccc5)cc4)ccc32)cc1 the emission maximum (in ClC(Cl)Cl) was 410 nm.

CC(C)(C)c1cccc2c1oc1nc3oc4ccc(-n5c6ccccc6c6ccccc65)cc4c3cc12 showed an emission maximum (in ClC(Cl)Cl) of 419 nm.

With O=S(=O)(c1cccc(N2c3ccccc3Oc3ccccc32)c1)c1cccc(N2c3ccccc3Oc3ccccc32)c1 the emission maximum (in C1CCOC1) was 596 nm, the emission maximum (in CCCCC(CC)n1c2ccc(-n3c4ccccc4c4ccccc43)cc2c2cc(-n3c4ccccc4c4ccccc43)ccc21) was 542.52 nm and the emission maximum (in Cc1ccccc1) was 547 nm. The emission maximum (in ClC(Cl)Cl) was 572 nm and the emission maximum (in c1cc(-n2c3ccccc3c3ccccc32)cc(-n2c3ccccc3c3ccccc32)c1) was 546.26 nm.

With C(=C\c1cc2ccccc2c2ccccc12)/c1cc2ccccc2c2ccccc12 the emission maximum (in C1CCOC1) was 416 nm.

Work on CC(C)(C)c1ccc2oc(-c3ccc(-c4nc5cc(C(C)(C)C)ccc5o4)s3)nc2c1 yielded an emission maximum (in C1CCCCC1) of 426 nm, an emission maximum (in C1CCOC1) of 432 nm and an emission maximum (in CC1CCCCC1) of 426 nm. For the same compound, the emission maximum (in CC#N) was 432 nm, the emission maximum (in CCCCO) was 434 nm and the emission maximum (in CCO) was 434 nm. For the same compound, the emission maximum (in CN(C)C=O) was 434 nm, the emission maximum (in Cc1ccccc1) was 434 nm and the emission maximum (in Clc1ccccc1Cl) was 437 nm. It also gave an emission maximum (in c1ccccc1) of 434 nm.

Cc1cccn2c1cc1c3ccccc3nc(-c3ccco3)c12 showed an emission maximum (in CS(C)=O) of 502 nm.

Compound CCCCC1=Cc2c3ccc4cccc5ccc(c6cc(-c7ccccc7)n(c26)P1(=O)c1ccccc1)c3c45 (configuration not stated) has an emission maximum (in C1CCCCC1) of 452 nm, an emission maximum (in C1CCOC1) of 459 nm and an emission maximum (in C1COCCO1) of 460 nm. The emission maximum (in CC#N) was 459 nm, the emission maximum (in CC(C)=O) was 459 nm and the emission maximum (in CO) was 459 nm. For the same compound, the emission maximum (in Cc1ccccc1) was 460 nm, the emission maximum (in ClC(Cl)Cl) was 458 nm and the emission maximum (in ClCCl) was 459 nm.

In the case of CCCCCCN1C(=O)c2cccc3c(-c4ccc(-c5cc(-c6ccc(Cl)cc6)n(-c6ccccc6)n5)s4)ccc(c23)C1=O, the emission maximum (in ClCCl) is reported as 517 nm.

c1ccc2c(c1)CC1(C2)c2cc(N3c4ccccc4Sc4ccccc43)ccc2-c2ccc(N3c4ccccc4Sc4ccccc43)cc21 showed an emission maximum (in Cc1ccccc1) of 495 nm.

c1ccc(B2Nc3cc4c(cc3-c3sc5ccccc5c32)NB(c2ccccc2)c2c-4sc3ccccc23)cc1 gave an emission maximum (in ClCCl) of 418 nm.

For c1ccc(-c2ccc(-c3cn4ccc[n+]4[n-]3)cc2)cc1, the emission maximum (in ClCCl) was 456 nm.

Work on Cc1cc(C)c(-c2cc(-c3c(C)cc(C)cc3C)c3ccc4c(-c5c(C)cc(C)cc5C)cc(-c5c(C)cc(C)cc5C)c5ccc2c3c54)c(C)c1 yielded an emission maximum (in ClCCl) of 411 nm.

For CCCCn1c2c(-c3ccc(N(c4ccccc4)c4ccccc4)cc3)cc(C#N)cc2c2cc(C#N)cc(-c3ccc(N(c4ccccc4)c4ccccc4)cc3)c21, the emission maximum (in C1CCCCC1) was 404 nm, the emission maximum (in C1CCOC1) was 449 nm and the emission maximum (in CC#N) was 476 nm. It also gave an emission maximum (in CCCCOCCCC) of 419 nm, an emission maximum (in CCN(CC)CC) of 415 nm and an emission maximum (in CCOC(C)=O) of 443 nm. For the same compound, the emission maximum (in CCOCC) was 430 nm, the emission maximum (in CN(C)C=O) was 476 nm and the emission maximum (in Cc1ccccc1) was 415 nm. It also gave an emission maximum (in ClC=C(Cl)Cl) of 424 nm and an emission maximum (in ClCCl) of 452 nm.

Compound CCN(CC)c1ccc(/C=N/C(C#N)=C(C#N)\N=C\c2ccc(N(CC)CC)cc2O)c(O)c1 has an emission maximum (in CC#N) of 606 nm.

CNc1ccc2c(c1)C(=O)c1ccccc1-2 showed an emission maximum (in C1CCCCC1) of 587 nm and an emission maximum (in c1ccccc1) of 635 nm.

With Clc1ccc(/C=C(\c2ccccc2)c2nc3ccccc3o2)cc1 the emission maximum (in CO) was 420 nm.

In the case of COc1ccc(C2=CC(c3ccccc3)=[N+]3C2=Nc2c(-c4ccc(OC)cc4)cc(-c4ccccc4)n2[B-]3(F)F)cc1, the emission maximum (in Cc1ccccc1) is reported as 697 nm and the emission maximum (in ClC(Cl)Cl) is reported as 695 nm.

With CC(C)(C)c1cc(-c2c3cc(c(-c4cc(C(C)(C)C)cc(C(C)(C)C)c4)c4ccc([nH]4)c(-c4ccc([N+](=O)[O-])cc4)c4nc(c(-c5ccc([N+](=O)[O-])cc5)c5ccc2[nH]5)C=C4)N=C3)cc(C(C)(C)C)c1 the emission maximum (in ClCCl) was 741 nm.

In the case of F[B-]1(F)OC(c2ccccc2)=Cc2ccc3ccccc3[n+]21, the emission maximum (in ClC(Cl)Cl) is reported as 438 nm and the emission maximum (in ClCCl) is reported as 441 nm.

From the Deep4Chem optical property database
